Experimental data: patent US20250101429A1, “siRNAs and shRNAs Targeting HIV and Combinations, Expression Cassettes, Cells and Use Thereof” (BEIJING SOLOBIO GENETECHNOLOGY CO., LTD., priority 2021, published 2025)

Legend:
Assay type in all cases: cell-based
HIV-1 IIIB = assay: Antiviral activity of recombinant lentiviruses against HIV-1 IIIB in H9 cells (P24 antigen ELISA); conditions: H9 + HIV-1 IIIB, positive drug, concentration 1 μM; for Relative concentration(%): vs no-drug control = 100; for Average concentration of P24: day 7
Method: The H9 cells were resuscitated and subcultured in complete medium (RPMI-1640+10% FBS+PS). The cells were resuspended in OPTI-MEM medium, counted and adjusted to a concentration of 5×10^5 cells/ml, and inoculated in 6-well plates with 2 ml per well. The experimental groups SIV-Gag3, SIV-Gag2, SIV-Gag1, SIV-LTR2 or SIV-Nef, SIV-EGFP empty vector control group and blank control group (no HIV-1 IIIB infection, and […]) were set on the 6-well plates. The above recombinant lentiviruses were added to the 6-well plates with the multiplicity of infection (MOI) of 2000, mixed, and cultured at 37° C., 5% CO2 for 24 hours. Each well was supplemented with 4 ml complete medium and cultured at 37° C., 5% CO2 for 72 hours.
(§1) 5 ml of supernatant from each well of 6-well plates was discarded and another 5 ml of fresh complete medium was added. Cells were diluted and inoculated in 96-well plates at 1×10^4 cells/well. 0.5 ml of HIV-1 IIIB was diluted with 5.75 ml of complete medium and mixed. Then 100 μl of virus diluent was added to each well of cells, except for the blank control group, mixed and incubated at 37° C. and 5% CO2. Half volume of liquid was changed on day 2 and day 4 after HIV-1 IIIB infection, respectively. 150 μl of sample was taken from each well on day 7 after infection, sealed and heated at 56° C. for 30 minutes. After the HIV viruses were thermally inactivated, the sample was stored at −20° C., ready for ELISA detection.
HIV-1 P24 antigen detection kit (96T) (Beijing Jinboyi Biotechnology Co., Ltd.) was used for ELISA detection. The OD Value was measured with a microplate reader. Then average value, and relative concentration was calculated to determine the antiviral activity of the recombinant lentiviruses against HIV-1 IIIB in H9 cells.
The H9 cells were resuscitated and subcultured in complete medium (RPMI-1640+10% FBS+PS). The cells were resuspended in OPTI-MEM medium, counted and adjusted to a concentration of 5×10^5 cells/ml, and inoculated in 6-well plates with 2 ml per well. The experimental groups SIV-G3L2, SIV-G2L2, SIV-G1L2, or SIV-G2N, SIV-EGFP empty vector control group, positive drug control group (Efavirenz, EFV, Shanghai Desano Pharmaceuticals Co., Ltd., Concentration 1 μM), no-drug control group (HIV-1 IIIB infection, and no recombinant lentivirus drug administration) and blank control group (no HIV-1 IIIB infection, and no lentivirus drug administration) were set on the 6-well plates. The recombinant lentiviruses were added to the 6-well plates at five doses with the multiplicity of infection (MOI) of 125, 250, 500, 1000, and 2000, and the added volumes were 2.1 μL, 4.2 μL, 8.4 μL, 16.7 μL, 33.3 μL, respectively, with one well for each dose. The recombinant lentivirus SIV-EGFP with MOI of 2000 was added as an empty vector control, the volume was 33.3 μL. Mixed, and cultured at 37° C. and 5% CO2 for 24 hours. Each well was supplemented with 4 ml complete medium and cultured at 37° C., 5% CO2 for 72 hours.
as §1, with “the cells” for “Cells”

[1] = test system: HIV protease inhibitor resistant strain MT2-884; assay: Antiviral activity against protease inhibitor resistant strain MT2-884 in MT2 cells (P24 ELISA); conditions: Table 9, MT2 + MT2-884, positive drug, concentration 1 μM
Method: The experimental method of example 5 was the same as Step 1 of Example 3, except that the tested strain was a protease inhibitor resistant strain MT2-884, and the infected cells were MT2 cells. Firstly, cell culture and recombinant lentivirus SIV-G3L2 or SIV-G2N infection: Cells were cultured in 6-well plates, and the experimental group SIV-G3L2 or SIV-G2N, SIV-EGFP empty vector control group, positive drug control group (Efavirenz, EFV, Shanghai Desano Pharmaceuticals Co., Ltd., Concentration 1 μM), no drug control group (MT2-884 infection, and no recombinant lentivirus drug administration), and a blank control group were set on the 6-well plates. The recombinant lentiviruses were added to the 6-well plates with the multiplicity of infection (MOI) of 125, 250, 500, 1000 and 2000, respectively, and the recombinant lentivirus SIV-EGFP with MOI of 2000 was added as an empty vector control. Mixed and cultured.
Then virus challenge: the MT2 cells were diluted and inoculated in 96-well plates at 1×10^4 cells/well. […] The OD value was measured with a microplate reader. then average value, and relative concentration was calculated to determine the antiviral activity of the recombinant lentiviruses against MT2-884 in MT2 cells.

[2] = test system: HIV reverse transcriptase inhibitor resistant strain MT2-010; assay: Antiviral activity against reverse transcriptase inhibitor resistant strain MT2-010 in MT2 cells (P24 ELISA); conditions: MT2 + MT2-010, positive drug, concentration 1 μM; for Average concentration: P24 ELISA; for Relative concentration(%): vs no-drug control = 100
Method: The experimental design of example 4 was the same as that of Example 3, except that the tested strain was a reverse transcriptase inhibitor resistant strain MT2-010, and the infected cells were MT2 cells. Firstly, cell culture and recombinant lentivirus infection: the experimental group SIV-G3L2 or
SIV-G2N, SIV-EGFP empty vector control group, positive drug control group (Efavirenz, EFV, Shanghai Desano Pharmaceuticals Co., Ltd., Concentration 1 μM), no drug control group (MT2-010 infection, and no recombinant lentivirus drug administration), and a blank control group were set on the 6-well plates. The recombinant lentiviruses were added to the 6-well plates with the multiplicity of infection (MOI) of 125, 250, 500, 1000 and 2000, respectively, and the recombinant lentivirus SIV-EGFP with MOI of 2000 was added as an empty vector control. Mixed and cultured.
Then virus challenge: the MT2 cells were diluted and inoculated in 96-well plates at 1×10^4 cells/well. The reverse transcriptase inhibitor resistant strain MT2-010 was diluted with complete culture medium, and mixed. The virus diluent was added into each well of cells, except for the blank control group. Mixed and cultured. The sampling was performed as described in Example 3, and ELISA detection was performed by using the above-mentioned kit. The OD value was measured with a microplate reader. Then average value, and relative concentration was calculated to determine the antiviral activity of the recombinant lentiviruses against MT2-010 in MT2 cells.

O=C1Nc2ccc(Cl)cc2[C@@](C#CC2CC2)(C(F)(F)F)O1 [EFV, Efavirenz]
Average concentration (HIV-1 IIIB; Table 3, P24 ELISA day 7): 10 | Relative concentration(%) (HIV-1 IIIB; Table 3): 0.05% | Average concentration of P24 (HIV-1 IIIB; Table 4): <10 pg/mL | Relative concentration(%) (HIV-1 IIIB; Table 4): 0.05% | Average concentration of P24 (HIV-1 IIIB; Table 5): <10 pg/mL | Relative concentration(%) (HIV-1 IIIB; Table 5): 0.05% | Average concentration of P24 (HIV-1 IIIB; Table 6): <10 pg/mL | Relative concentration(%) (HIV-1 IIIB; Table 6): 0.05% | Average concentration(pg/ml) ([1]; P24 ELISA): 50 pg/mL | Relative concentration(%) ([1]; vs no-drug control = 100): 0.51% | Average concentration ([2]; Table 7): 52.69 | Relative concentration(%) ([2]; Table 7): 0.17% | Average concentration ([2]; Table 8): 59.36 | Relative concentration(%) ([2]; Table 8): 0.21%
